The values below come from patent US6420558B1, “Aminopiperidine derivates as integrin αvβ3 antagonists” (Meiji Seika Kaisha, Ltd., priority 1998, dated 2002).

The target of assay [1] is GP IIb/IIIa (Homo sapiens, UniProt P05106+P08514). In words: GP IIb/IIIa antagonistic activity (method of Pharmacological Test 2 in WO 94/21599). Format: binding. As to the method:
GP IIb/IIIa Antagonistic Activity and Human Platelet Aggregation Inhibitory Activity
GP IIb/IIIa antagonistic activity was measured for the compounds according to the present invention. The measurement of the GP IIb/IIIa antagonistic activity was carried out according to the method described in Pharmacological Test 2 in WO 94/21599.

In assay [2] the test system is human vascular smooth muscle cells adhering to immobilized human vitronectin. In words: Inhibitory activity against adhesion of human vascular smooth muscle cells to vitronectin. Format: cell-based. The settings on record: 1.5 h; human vitronectin-coated plate, 90 min. As to the method:
Inhibitory Activity Against Adhesion of Human Vascular Smooth Muscle Cells to Vitronectin
The adhesion of human vascular smooth muscle cells =+to immobilized human vitronectin was measured in accordance with the method of Liaw et al. (Liaw L, Almeida M, Hart C E, Schwartz S M, and Giachelli C M, Circulation Research, 74 (2), 214-224 (1994)).
A Dulbecco's phosphate buffer (Dulbecco's PBS(−), Nissui Pharmaceutical Co., Ltd.) solution of human plasma-derived vitronectin (CALBIOCHEM) adjusted to a concentration of 4 μg/ml was first added to wells (50 μl/well) of a microplate (Maxisorp, Nunc), and a reaction for immobilization was allowed to proceed at 4° C. overnight. After washing twice with 150 μl of Dulbecco's phosphate buffer, a Dulbecco's phosphate buffer containing 10 mg/ml of bovine serum albumin (SIGMA) was added, followed by blocking at 37° C. for one hr. The assay plate was washed twice with 150 μl of Dulbecco's phosphate buffer.
Separately, human vascular smooth muscle cells cultivated at 37° C. under 5% carbon dioxide in a medium for vascular smooth muscle cells (Clonetics) were separated using a Dulbecco's phosphate buffer containing trypsin-EDTA (GIBCO BRL), washed with Dulbecco's phosphate buffer, and then suspended in a Dulbecco's modified Eagle's basal medium (Nissui Pharmaceutical Co., Ltd.) containing 0.1% bovine serum albumin to a concentration of 5×10^5/ml.
Next, 50 μl of a Dulbecco's modified Eagle's basal medium containing 10 mg/ml of bovine serum albumin with a medicament added thereto was added to the wells of the human vitronectin-coated assay microplate, followed by pre-cultivation under 5% carbon dioxide at 37° C. for 10 min. Thereafter, 50 μl of the medium with human vascular smooth muscle cells suspended therein was added thereto, and the plate was thoroughly stirred. A reaction was allowed to proceed under 5% carbon dioxide at 37° C. for 90 min. The reaction solution containing non-adherent cells were then removed, followed by washing three times with Dulbecco's phosphate buffer. For the adhered cells, 100 μl of a Dulbecco's phosphate buffer containing 4% paraformaldehyde (Wako Pure Chemical Industries, Ltd.) was added, and immobilization was allowed to proceed at room temperature for 10 min. Next, 100 μl of a Dulbecco's phosphate buffer containing 0.5% Toluidine Blue (Croma) and 4% paraformaldehyde was added, and staining was allowed to proceed at room temperature for 5 min, followed by thorough washing with distilled water. The inside of the wells was then air-dried, and a 1% aqueous sodium dodecylsulfate solution was then added to perform cytolysis. The absorbance of the microplate thus obtained was measured at 595 nm. […] The inhibition was calculated by the following equation. IC50 was determined from a primary regression line of the logarithm of each concentration of the test compound and the logarithm of (100−inhibition)/inhibition. [formula]

Assay [3] addresses T1, integrin αvβ3 (vitronectin receptor purified from the human placenta) (Homo sapiens, UniProt P05106+P06756).
T1 construct: a vitronectin receptor (protein content: 118 μg/ml) purified from the human placenta; from tissue; host or cells: human placenta
Kind of assay: αvβ3 binding assay (vitronectin-vitronectin receptor binding assay). The settings on record: vitronectin binding to human placenta vitronectin receptor; read-out: integrin αvβ3 antagonistic activity, IC50 value. As to the method: Integrin αvβ3 antagonistic activity was measured for the compounds according to the present invention in a vitronectin-vitronectin receptor binding assay system in accordance with the method of Kouns et al. (W. C. Kouns, D. Kirchhofer, P. Hadvary, A. Edenhofer, T. Weller, G. Pfenninger, H. R. Baumgartner, L. K. Jennings and B. Steiner, Blood, 80, 2539-2547 (1992)).
Specifically, a vitronectin receptor (protein content: 118 μg/ml) purified from the human placenta in accordance with the method of Pytela et al. (R. Pytela, M. D. Pierschbacher, S. Argraves, S. Suzuki, and E. Ruoslahti, Method in Enzymology, 144, 475-489 (1987)) was diluted 50 times with TBS (20 mM Tris-HCl, 150 mM NaCl, 1 mM CaCl2, 1 mM MgCl2, pH 7.4), and distributed and coated on wells (50 μl/well) of a plate (Maxisorp, Nunc, 96 well Immuno Plate). The plate was then allowed to stand at 4° C. for 1 day, washed twice with TBS (200 μl/well), and then subjected to blocking with TBS (150 μl/well) containing 1% bovine serum albumin (SIGMA) at 4° C. overnight. After washing twice with TBS (200 μl/well), 50 μl of vitronectin (CALBIOCHEM) adjusted to 0.2 μg/ml by the addition of TBS (TBS-Tween) containing 0.01% Tween-20 was mixed with 50 μl of each test compound adjusted to each concentration in wells, and a reaction was allowed to proceed at room temperature for 4 hr. After the completion of the reaction, the wells were washed five times with TBS-Tween. A solution prepared by diluting anti-vitronectin rabbit antiserum (CHEMICON) 500 times with TBS-Tween was added as a primary antibody in an amount of 50 μl/well, and a reaction was allowed to proceed at room temperature for 1.5 hr. After washing five times with 200 μl/well of TBS-Tween, a peroxidase (POD)-labeled anti-rabbit IgG antibody solution (CAPPEL) diluted 500 times with TBS-Tween was added as a secondary antibody in an amount of 50 μl/well, and a reaction was allowed to proceed at room temperature for 1.5 hr. After washing five times with TBS-Tween (200 μl/well), ABTS (2,2′-azino-bis(3-ethylbenzthiazoline-6-sulfonic acid), SIGMA) was adjusted to 1 mg/ml by the addition of a ten-fold diluted POD-buffer (ZYMED), and added in an amount of 50 μl/well, and a reaction was allowed to proceed for 5 to 10 min. A 0.1 M citric acid buffer (pH 4.3) containing 0.05% NaN3 was added in an amount of 50 μl/well to stop the reaction, followed by the measurement of the absorbance at 415 nm with a microplate reader (MTP 32, Corona Electric) (reference: 675 nm). The total binding was defined as the absorbance after a reaction using 50 μl of TBS-Tween instead of the test compound, and the non-specific binding (100% inhibition) was defined as the absorbance after a reaction using 50 μl of TBS-Tween containing 2×10^−3 M RGDS. The inhibition was calculated by the following equation: [formula]
IC50 was determined from a primary regression line of the logarithm of each concentration of the test compound and the logarithm of (100−inhibition)/inhibition.

Chain of GP IIb/IIIa (P08514 32-887 limits assumed): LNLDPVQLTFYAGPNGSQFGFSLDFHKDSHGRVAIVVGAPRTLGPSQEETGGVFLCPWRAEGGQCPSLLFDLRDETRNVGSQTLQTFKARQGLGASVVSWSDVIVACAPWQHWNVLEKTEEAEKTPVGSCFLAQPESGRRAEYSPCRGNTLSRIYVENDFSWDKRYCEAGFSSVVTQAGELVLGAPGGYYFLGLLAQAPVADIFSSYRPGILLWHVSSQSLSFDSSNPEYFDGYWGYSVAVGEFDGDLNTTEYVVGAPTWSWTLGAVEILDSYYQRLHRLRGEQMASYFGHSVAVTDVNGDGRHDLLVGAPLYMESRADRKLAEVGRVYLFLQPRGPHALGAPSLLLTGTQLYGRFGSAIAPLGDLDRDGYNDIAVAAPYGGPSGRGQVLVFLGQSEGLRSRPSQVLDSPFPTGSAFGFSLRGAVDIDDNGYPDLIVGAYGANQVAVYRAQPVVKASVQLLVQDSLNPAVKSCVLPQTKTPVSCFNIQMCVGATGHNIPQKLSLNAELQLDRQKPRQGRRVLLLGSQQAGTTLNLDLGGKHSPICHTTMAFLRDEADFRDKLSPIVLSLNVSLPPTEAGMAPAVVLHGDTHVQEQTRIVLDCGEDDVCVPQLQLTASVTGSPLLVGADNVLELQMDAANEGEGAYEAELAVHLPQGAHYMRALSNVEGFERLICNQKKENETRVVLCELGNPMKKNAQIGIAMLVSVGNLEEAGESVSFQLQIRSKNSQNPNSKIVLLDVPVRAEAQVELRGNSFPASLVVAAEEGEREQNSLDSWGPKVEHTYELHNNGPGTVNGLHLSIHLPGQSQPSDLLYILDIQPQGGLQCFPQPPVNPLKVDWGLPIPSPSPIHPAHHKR
Chain of GP IIb/IIIa (P08514 891-1039 limits assumed): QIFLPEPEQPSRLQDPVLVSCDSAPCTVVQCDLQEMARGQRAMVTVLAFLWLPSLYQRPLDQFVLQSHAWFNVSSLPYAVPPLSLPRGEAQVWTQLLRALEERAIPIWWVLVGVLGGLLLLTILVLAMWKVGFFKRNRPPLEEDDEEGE
Chain of GP IIb/IIIa (P05106 27-788): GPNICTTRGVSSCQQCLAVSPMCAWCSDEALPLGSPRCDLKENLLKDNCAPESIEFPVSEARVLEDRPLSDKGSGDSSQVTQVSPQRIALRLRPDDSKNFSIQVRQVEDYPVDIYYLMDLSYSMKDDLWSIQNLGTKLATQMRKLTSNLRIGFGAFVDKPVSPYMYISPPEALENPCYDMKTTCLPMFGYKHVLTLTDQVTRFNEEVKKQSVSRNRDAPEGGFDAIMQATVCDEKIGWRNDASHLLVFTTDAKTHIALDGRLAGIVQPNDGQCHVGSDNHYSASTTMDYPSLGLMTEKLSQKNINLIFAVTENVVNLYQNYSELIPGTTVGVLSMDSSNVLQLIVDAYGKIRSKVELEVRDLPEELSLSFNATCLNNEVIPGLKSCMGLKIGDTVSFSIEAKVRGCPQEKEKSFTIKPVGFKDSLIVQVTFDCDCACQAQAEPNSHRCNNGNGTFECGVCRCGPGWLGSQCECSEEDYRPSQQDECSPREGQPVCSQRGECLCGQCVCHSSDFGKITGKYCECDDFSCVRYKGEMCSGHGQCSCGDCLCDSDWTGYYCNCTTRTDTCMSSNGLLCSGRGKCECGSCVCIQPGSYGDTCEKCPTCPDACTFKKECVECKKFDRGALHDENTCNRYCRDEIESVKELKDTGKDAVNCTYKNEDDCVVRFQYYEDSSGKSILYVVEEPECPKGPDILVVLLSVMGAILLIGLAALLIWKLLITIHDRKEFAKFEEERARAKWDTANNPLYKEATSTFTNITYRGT
T1 sequence (P06756 31-889 limits assumed): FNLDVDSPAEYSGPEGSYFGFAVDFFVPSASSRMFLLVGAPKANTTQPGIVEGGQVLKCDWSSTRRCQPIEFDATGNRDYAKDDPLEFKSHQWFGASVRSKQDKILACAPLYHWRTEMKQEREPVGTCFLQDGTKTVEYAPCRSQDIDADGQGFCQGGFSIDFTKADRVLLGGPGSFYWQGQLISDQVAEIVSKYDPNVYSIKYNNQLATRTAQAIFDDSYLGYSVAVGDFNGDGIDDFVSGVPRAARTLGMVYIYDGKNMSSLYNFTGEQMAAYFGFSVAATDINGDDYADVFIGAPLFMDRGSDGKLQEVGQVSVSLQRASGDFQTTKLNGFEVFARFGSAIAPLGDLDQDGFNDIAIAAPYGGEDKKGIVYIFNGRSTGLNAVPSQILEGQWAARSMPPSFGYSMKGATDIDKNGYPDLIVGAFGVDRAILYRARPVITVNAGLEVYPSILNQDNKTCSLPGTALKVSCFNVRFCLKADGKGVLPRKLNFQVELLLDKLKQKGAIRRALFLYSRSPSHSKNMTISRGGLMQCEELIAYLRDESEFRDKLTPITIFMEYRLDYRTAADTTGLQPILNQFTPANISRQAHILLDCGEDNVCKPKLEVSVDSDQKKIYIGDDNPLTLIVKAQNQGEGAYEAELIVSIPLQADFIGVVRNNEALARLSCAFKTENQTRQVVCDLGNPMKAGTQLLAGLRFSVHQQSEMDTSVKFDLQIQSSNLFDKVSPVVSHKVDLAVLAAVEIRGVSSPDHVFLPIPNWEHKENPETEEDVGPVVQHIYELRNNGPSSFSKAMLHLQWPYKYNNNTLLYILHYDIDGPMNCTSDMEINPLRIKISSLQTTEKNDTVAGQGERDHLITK
T1 sequence (P06756 891-1048 limits assumed): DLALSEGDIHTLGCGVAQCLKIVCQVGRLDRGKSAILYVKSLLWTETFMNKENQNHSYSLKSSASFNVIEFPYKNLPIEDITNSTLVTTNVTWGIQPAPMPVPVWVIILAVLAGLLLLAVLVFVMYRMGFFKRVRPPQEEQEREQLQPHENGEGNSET
T1 sequence (P05106 27-788): as the sequence (P05106 27-788) above

`O=C(NC[C@H](NS(=O)(=O)c1ccc([N+](=O)[O-])cc1)C(=O)O)c1ccc(N2CCC(Nc3nc4ccccc4[nH]3)CC2)cc1` [Example 35, 3-[4-{4-(1H-Benzimidazol-2-ylamino)piperidin-1-yl}benzoylamino]-(2S)-{(4-nitro-benzenesulfonyl)amino}propionic acid]: the IC50 (usually the concentration at which inhibition is half-maximal) in assay [1] is ≤ 1 nM; in assay [2] it was ≤ 70 nM; in assay [3], ≤ 1 nM.

Regarding `O=C(NC[C@H](NS(=O)(=O)c1ccc(F)cc1)C(=O)O)c1ccc(N2CCC(Nc3nc4ccccc4[nH]3)CC2)cc1` [Example 33, 3-[4-{4-(1H-Benzimidazol-2-ylamino)piperidin-1-yl}benzoylamino]-(2S)-{(4-fluoro-benzenesulfonyl)amino}propionic acid], the concentration for half-maximal inhibition (IC50) in assay [1] and in assay [3] was ≤ 1 nM throughout.

With `Nc1ccc(S(=O)(=O)N[C@@H](CNC(=O)c2ccc(N3CCC(Nc4nc5ccccc5[nH]4)CC3)cc2)C(=O)O)cc1` [Example 36, (2S)-(4-Aminobenzenesulfonyl)amino-3-[4-{4-(1H-benzimidazol-2-ylamino)piperidin-1-yl}benzoylamino]-propionic acid], the IC50 in assay [1] and in assay [3] was ≤ 1 nM in each case.

Turning to `O=C(NC[C@H](NS(=O)(=O)c1ccccc1)C(=O)O)c1ccc(N2CCC(N=C3NCCCN3)CC2)c(O)c1` [Example 95, (2S)-Benzenesulfonylamino-3-[3-hydroxy-4-{4-(1,4,5,6tetrahydropyrimidin-2-ylamino)piperidin-1-yl}-benzoylamino]propionic acid], the IC50 in assay [1] and in assay [3] was ≤ 1 nM each time.

On to `O=C(NC[C@H](NS(=O)(=O)c1ccc(O)cc1)C(=O)O)c1ccc(N2CCC(NC3=NCCCN3)CC2)c(F)c1` [Example 75, 3-[3-Fluoro-4-{4-(1,4,5,6-tetrahydropyrimidin-2-ylamino)piperidin-1-yl}benzoyl-amino]-(2S)-{(4-hydroxybenzenesulfonyl)amino}propionic acid], for which the IC50 in assay [1] is ≤ 1 nM; in assay [2], ≤ 70 nM; in assay [3], ≤ 1 nM.

Take `COc1cc(C(=O)NC[C@H](NS(=O)(=O)c2ccccc2)C(=O)O)ccc1N1CCC(NC2=NCCCN2)CC1` [Example 93, (2S)-Benzenesulfonylamino-3-[3-methoxy-4-{4-(1,4,5,6tetrahydropyrimidin-2-ylamino)piperidin-1-yl}-benzoylamino]propionic acid]: the IC50 was ≤ 1 nM in assay [1], ≤ 70 nM in assay [2] and ≤ 1 nM in assay [3].

Regarding `Cc1cc(C)c(S(=O)(=O)N[C@@H](CNC(=O)c2ccc(N3CCC(Nc4nc5ccccc5[nH]4)CC3)cc2)C(=O)O)c(C)c1` [Example 31, 3-[4-{4-(1H-Benzimidazol-2-ylamino)piperidin-1-yl}benzoylamino]-(2S)-{(2,4,6-trimethylbenzenesulfonyl)amino}propionic acid], the IC50 in assay [1] and in assay [3] was ≤ 1 nM in each case.

For `COc1ccc(S(=O)(=O)N[C@@H](CNC(=O)c2ccc(N3CCC(NC4=NCCCN4)CC3)c(F)c2)C(=O)O)cc1` [Example 73, 3-[3-Fluoro-4-{4-(1,4,5,6-tetrahydropyrimidin-2-ylamino)piperidin-1-yl}benzoyl-amino]-(2S)-{(4-methoxybenzenesulfonyl)amino}propionic acid], the IC50 in assay [1] and in assay [3] was ≤ 1 nM in each case.

For `O=C(NC[C@H](NS(=O)(=O)c1ccccc1)C(=O)O)c1ccc(N2CCC(Nc3nc4ncccc4[nH]3)CC2)cc1` [Example 38, (2S)-Benzenesulfonylamino-3-[4-[4-{(1H-imidazo[4,5-b]pyridin-2-yl)amino}piperidin-1-yl]benzoyl-amino]propionic acid], the IC50 in assay [1] and in assay [3] was ≤ 1 nM in each case.

Regarding `O=C(O)c1ccc(S(=O)(=O)N[C@@H](CNC(=O)c2ccc(N3CCC(N=C4NCCCN4)CC3)c(F)c2)C(=O)O)cc1` [Example 78, (2S)-(4-Carboxybenzenesulfonyl)amino-3-[3-fluoro-4-{4-(1.4.5.6-tetrahydropyrimidin-2-ylamino)-piperidin-1-yl}benzoylamino]propionic acid], the IC50 in assay [1] and in assay [3] was ≤ 1 nM throughout.

Regarding `O=C(NC[C@H](NS(=O)(=O)c1ccccc1)C(=O)O)c1ccc(N2CCC(NC3=NCCCN3)CC2)c(F)c1F` [Example 57, (2S)-Benzenesulfonylamino-3-[2,3-difluoro-4-{4-(1,4,5,6-tetrahydropyrimidin-2-ylamino)piperidin-1yl}benzoylamino]propionic acid], the values for the IC50 in assay [1], in assay [2] and in assay [3] were ≤ 1 nM, ≤ 70 nM and ≤ 1 nM, respectively.
